In data set [1] the target is T1, deflavo-morphinone reductase (Pseudomonas putida, UniProt Q51990).
T1 construct: FMN removed by ammonium sulphate (apoenzyme); initiator Met absent
Nature of the data set: Reconstitution of deflavo-morphinone reductase by incubation with flavins. The data set is classed as biochemical, Pseudomonas putida M10. Here is the method: Flavin was dissociated from morphinone reductase by boiling for 3 minutes and removal of denatured protein by ultrafiltration. […] Thin layer chromatography (TLC) of flavins was performed on silica plates using solvent systems 2 and 4 of Fazekas and Kokai (Met. Enzymol. (1971) 18B:385-398), viz. 12:3:5 n-butanol:acetic acid:water and 2% disodium hydrogen phosphate in water. Flayins on TLC plates were visualised by their yellow fluorescence when illuminated by ultraviolet light at 366 nm. Luciferase assay of flavins was performed using the commercially-availablepreparation of Vibrio harveyii luciferase of Sigma. The reaction mixture contained 0.1 mg/ml luciferase preparation, 0.1 mg/ml bovine serum albumin, 0.2 mM n-decanal, 0.5 mM NADH and 1.5mM dithiothreitol. Assays were carried out at 24° C. and light emission was measured using a BioOrbit 1250 Luminometer (Labsystems (UK) Ltd., Basingstoke, U.K.). Deflavomorphinone reductase was prepared by ammonium sulphate treatment, as described by Husain and Massey (1978) Met. Enzymol. 53:429-437.
The liberated flavin comigrated with flavin mononucleotide (FMN) and not with flavin adenine dinucleotide (FAD) or riboflavin in two thin layer chromatography systems. The liberated flavin gave a positive result in the luciferase assay which is highly specific for FMN (Chappelle and Picciolo, Met. Enzymol (1971) 18B:381-385). […]

In data set [2] the target is T2, morphinone reductase (Pseudomonas putida, UniProt Q51990). The conditions noted are these: for Enzyme activity in the reverse direction: reverse reaction; for Enzyme activity against compound as substrate: forward (reduction) direction, with NADH.
Data set [3] concerns the target T2, morphinone reductase. Kind of data set: biochemical. More on the design: initiator Met absent; species or system Pseudomonas putida M10. To be noted: for Inhibition of enzyme (in words): pre-incubation with purified enzyme; for remaining activity at 1000 µM: 1 mM; for remaining activity at 1000 µM / remaining activity at 500 µM: read-out: Activity as percentage of control activity. The method, then: Assays were carried out at 30° C.
Purified enzyme was incubated with the following possible inhibitors: copper sulphate, the thiol-blocking agent p-hydroxymercuribenzoate (pHMB), the thiol-reducing agent dithiothreitol (DTT) and the metal-complexing agents ethylenediaminetetraacetic acid (EDTA) and 8- hydroxyquinoline (8HQ). Incubation was in the standard assay mixture without codeinone or NADH, firstly for 30 min at room temperature and secondly for 16 hours at 4° C. The enzyme concentration was approximately 3.3 μg/ml, 1/100 that of the purified enzyme stock.

For data set [4], the target named is T2, morphinone reductase. Kind of data set: Inhibition of the reaction with codeinone by compounds added to the standard assay mixture. The data set is classed as biochemical, Pseudomonas putida M10. To be noted: for Inhibition of the reaction with codeinone: added at 0.3 mM to the standard assay mixture. Further details: initiator Met absent.
Experimental: Enzyme activity was tested with a variety of substrates.
For data set [5], the target named is T2, morphinone reductase. Kind of data set: Coupled enzyme system (morphine dehydrogenase then morphinone reductase), HPLC analysis. In kind it is biochemical, Pseudomonas putida M10. Further details: initiator Met absent.
Experimental: Reverse-phase HPLC analysis was performed on a Waters component system (Millipore Waters U.K. Limited, Watford) consisting of a model 510 pump, a model 712 WISP autoinjector and a Waters 994 programmable photodiode array detector set to 235 nm and 280 nm, 0-1 V fsd. Separation of samples (50 μl ) was achieved on a 5 μm C18 Spherisorb ODS column (4.6×250mm) (Anachem limited, Luton) with an isocratic solvent system, delivered at a flow rate of 1 ml/min. The mobile phase consisted of filter-sterilised 15 mM KH2 PO4 (adjusted to pH 3.5 with 1 M H3 PO4) in 30% (v/v) HPLC grade acetonitrile (degassed for 40 min prior to use). Integrations were performed using Maxima 820 software and UV absorbance scans of resultant peaks were measured between 190 and 350 nm using the programmable photodiode array detector.
At regular intervals, 1 ml samples were removed and the reaction stopped by the addition of 2 μl glacial acetic acid (HPLC grade). The precipitated protein was subsequently pelleted at 13,000 rpm in an MSE microfuge.
The test system of data set [6] is COc1ccc2c3c1O[C@H]1C(=O)C=C[C@H]4[C@@H](C2)N(C)CC[C@]314. Kind of data set: purified protein, by the assay type. The conditions noted are these: 30.0 °C.
Data set [7] concerns COc1ccc2c3c1O[C@H]1C(=O)CC=C4[C@@H](C2)N(C)CC[C@]431. Kind of data set: purified protein, by the assay type. The conditions noted are these: 30.0 °C.
Data set [8] relates to NC(=O)C1=CN([C@@H]2O[C@H](COP(=O)(O)OP(=O)(O)OC[C@H]3O[C@@H](n4cnc5c(N)ncnc54)[C@H](O)[C@@H]3O)[C@@H](O)[C@H]2O)C=CC1. Kind of data set: purified protein, by the assay type. To be noted: 30.0 °C.

Like-named read-outs stand apart in the source and are kept apart here.

On to `Cc1cc2nc3c(=O)[nH]c(=O)nc-3n(C[C@H](O)[C@H](O)[C@H](O)COP(=O)(O)OP(=O)(O)OC[C@H]3O[C@@H](n4cnc5c(N)ncnc54)[C@H](O)[C@@H]3O)c2cc1C` [FAD, flavin adenine dinucleotide], for which the “Restoration of enzyme activity after incubation with flavin (in words)” value in data set [1] was “did not cause restoration”. As to `COc1ccc2c3c1O[C@H]1[C@@H](O)CC[C@H]4[C@@H](C2)N(C)CC[C@@]341` [dihydrocodeine], the “Enzyme activity in the reverse direction” value on morphinone reductase [2] is reported as “No reverse reaction”.

Turning to `O=C(O)c1cc[c]([Hg+])cc1.[OH-]` [pHMB, p-hydroxymercuribenzoate], the “Activity as percentage of control activity” value (“Activity as percentage” for short) is listed as 37% on morphinone reductase [3] (0.01 mM, 30 min 20°C.); 19% on morphinone reductase [3] (0.01 mM, 16 h 4°C.); 0% at morphinone reductase [3] (0.02 mM, 30 min 20°C.). Also, the “Inhibition of enzyme (in words)” value at morphinone reductase [3] is on record as “highly inhibitory”. Turning to `COc1ccc2c3c1O[C@H]1C(=O)CC[C@@]4(O)[C@@H](C2)N(C)CC[C@]314` [oxycodone], the “Enzyme activity in the reverse direction” value at morphinone reductase [2] is given as “No reverse reaction”. Consider `COc1ccc2c3c1O[C@H]1C(=O)CC[C@H]4[C@@H](C2)N(C)CC[C@]314` [hydrocodone], for which the “Enzyme activity in the reverse direction” value at morphinone reductase [2] is “No activity in the reverse direction”.

Regarding `C[C@]12CCC(=O)C=C1CC[C@@H]1[C@@H]2C(=O)C[C@@]2(C)[C@H]1CC[C@]2(O)C(=O)CO` [cortisone], at morphinone reductase [2], the “Enzyme activity against compound as substrate” value (shortened to “Enzyme activity … as substrate”) is reported as “No activity”. At morphinone reductase [4], the “Inhibition of the reaction with codeinone” value is given as “inhibit greatly”. On to `O[C@H](CS)[C@H](O)CS` (racemic) [DTT, dithiothreitol], for which the remaining activity at 1000 µM at morphinone reductase [3] (16 h 4°C.) was 94%; on morphinone reductase [3] (0.5 h, 30 min 20°C.), 94%. As for `CN1CC[C@]23c4c5ccc(O)c4O[C@H]2C(=O)C=C[C@H]3[C@H]1C5` [morphinone], the “Enzyme activity … as substrate” value at morphinone reductase [5] is “Activity against morphinone was demonstrated”. As to `COc1ccc2c3c1O[C@H]1[C@H](O)C=C[C@H]4[C@@H](C2)N(C)CC[C@@]341` [isocodeine], the “Enzyme activity … as substrate” value at morphinone reductase [2] is “No activity”. With `CN1CC[C@]23c4c5ccc(O)c4O[C@H]2C(=O)CC[C@@]3(O)[C@H]1C5` [oxymorphone], the “Enzyme activity in the reverse direction” value at morphinone reductase [2] is “No reverse reaction”. With `O=S(=O)([O-])[O-].[Cu+2]` [CuSO4, copper sulphate], the “Activity as percentage” value on morphinone reductase [3] (0.01 Mm, 30 min 20°C.) turned out to be 0%. The “Inhibition of enzyme (in words)” value on morphinone reductase [3] is listed as “highly inhibitory”. On to `COc1ccc2c3c1O[C@H]1C(=O)CC=C4[C@@H](C2)N(C)CC[C@]431` [Neopinone, neopinone], for which the “Enzyme activity … as substrate” value at morphinone reductase [2] is “Activity was detected”.

For the compound `COc1ccc2c3c1O[C@H]1C(=O)C=C[C@H]4[C@@H](C2)N(C)CC[C@]314` [Codeinone, codeinone], the “Enzyme activity … as substrate” value at morphinone reductase [2] is “Activity was detected”. As for `COc1ccc2c3c1O[C@H]1[C@@H](O)C=C[C@H]4[C@@H](C2)N(C)CC[C@@]341` [codeine], the “Enzyme activity … as substrate” value at morphinone reductase [2] was “No activity”. Consider `O=C1C=CCCC1` [2-cyclohexen-1-one], for which the “Enzyme activity … as substrate” value on morphinone reductase [2] is “Very slight activity”. The “Inhibition of activity against codeinone” value at morphinone reductase [4] (added to the standard assay at 1 mM) is listed as “inhibited the reaction with codeinone”. With `NC(=O)C1=CN([C@@H]2O[C@H](COP(=O)(O)OP(=O)(O)OC[C@H]3O[C@@H](n4cnc5c(N)ncnc54)[C@H](OP(=O)(O)O)[C@@H]3O)[C@@H](O)[C@H]2O)C=CC1` [NADPH], at morphinone reductase [2] (NADPH replaced NADH), the “Enzyme activity with alternative cofactor” value is on record as “No activity”. In the case of `Oc1cccc2cccnc12` [8HQ, 8-hydroxyquinoline], the “Activity as percentage” value came out at 94 on morphinone reductase [3] (morphinone reductase, 30 min, 50 µM) and 91 on morphinone reductase [3] (morphinone reductase, 960 min, 50 µM). The term Km denotes the concentration of substrate that gives half-maximal velocity. For orientation: kcat means the number of substrate molecules converted per active site and unit of time at saturation. As usually defined, the kcat/Km is the second-order rate constant that governs catalysis at low substrate concentration. Turning to “morphinone reductase (Pseudomonas putida)”, in data set [6], the Km is 250 µM, the Vmax came out at 32.0 U/mg, the kcat amounted to 44.4 s⁻¹ and the specificity constant (kcat/Km) stood at 178000 M⁻¹ s⁻¹. Besides, in data set [7], the Km was determined as 430 µM, the Vmax was found to be 16.6 U/mg, the kcat turned out to be 23.0 s⁻¹ and the kcat/Km was 53500 M⁻¹ s⁻¹. In data set [8], the Km came out at 50 µM. For the compound `CC(=O)[C@H]1CC[C@H]2[C@@H]3CCC4=CC(=O)CC[C@]4(C)[C@H]3CC[C@]12C` [progesterone], the “Enzyme activity … as substrate” value on morphinone reductase [2] is “No activity”. At morphinone reductase [4], the “Inhibition of the reaction with codeinone” value was “inhibit greatly”.

For the compound `O=C(O)CN(CCN(CC(=O)O)CC(=O)O)CC(=O)O` [EDTA, ethylenediaminetetraacetic acid], the remaining activity at 500 µM came to 100% at morphinone reductase [3] (0.5 h) and 97% on morphinone reductase [3] (16 h).
